{"source": "paper PMC10976477", "about": "(RSC Advances, 2024)", "key": {"[1]": {"assay": "DPPH radical scavenging assay", "details": "read-out: IC50 (μM) ± SEM DPPH"}, "[2]": {"assay": "ABTS radical cation scavenging assay", "details": "read-out: IC50 (μM) ± SEM ABTS"}, "human MAO-A": {"target": "T1, human MAO-A (Homo sapiens, UniProt P21397)", "T1 sequence (P21397 1-527)": "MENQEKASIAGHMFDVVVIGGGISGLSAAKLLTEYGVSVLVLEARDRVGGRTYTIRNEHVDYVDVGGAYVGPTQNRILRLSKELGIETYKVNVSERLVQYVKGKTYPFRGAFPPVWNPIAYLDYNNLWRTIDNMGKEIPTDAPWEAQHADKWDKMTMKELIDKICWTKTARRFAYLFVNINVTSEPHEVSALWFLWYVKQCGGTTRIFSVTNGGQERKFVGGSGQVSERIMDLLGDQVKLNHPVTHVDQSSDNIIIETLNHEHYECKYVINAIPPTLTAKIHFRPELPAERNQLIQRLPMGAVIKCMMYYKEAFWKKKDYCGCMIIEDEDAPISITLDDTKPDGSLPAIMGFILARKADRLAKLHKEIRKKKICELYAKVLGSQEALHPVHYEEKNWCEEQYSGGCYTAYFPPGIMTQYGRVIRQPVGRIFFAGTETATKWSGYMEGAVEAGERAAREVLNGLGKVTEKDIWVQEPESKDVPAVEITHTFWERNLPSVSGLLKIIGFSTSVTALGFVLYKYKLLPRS", "assay": "MAO-A inhibition assay", "type": "biochemical", "details": "read-out: IC50 (μM) ± SEM MAO-A; mean ± SEM; n = 3"}, "human MAO-B": {"target": "T2, human MAO-B (Homo sapiens, UniProt P27338)", "T2 sequence (P27338 1-520)": "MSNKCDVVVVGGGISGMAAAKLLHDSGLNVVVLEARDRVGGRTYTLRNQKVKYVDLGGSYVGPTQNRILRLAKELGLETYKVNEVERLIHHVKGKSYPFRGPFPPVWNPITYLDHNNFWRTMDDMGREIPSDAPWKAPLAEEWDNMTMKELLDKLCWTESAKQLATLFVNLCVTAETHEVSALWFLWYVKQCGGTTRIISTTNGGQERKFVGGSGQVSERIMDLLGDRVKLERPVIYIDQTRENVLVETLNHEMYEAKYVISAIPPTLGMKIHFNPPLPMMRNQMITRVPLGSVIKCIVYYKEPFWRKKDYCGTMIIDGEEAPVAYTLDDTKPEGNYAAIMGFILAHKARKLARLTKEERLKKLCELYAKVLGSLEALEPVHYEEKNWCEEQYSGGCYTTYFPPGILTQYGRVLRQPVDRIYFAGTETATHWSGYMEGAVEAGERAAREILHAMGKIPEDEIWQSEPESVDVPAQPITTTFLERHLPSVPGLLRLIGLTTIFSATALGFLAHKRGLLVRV", "assay": "MAO-B inhibition assay", "type": "biochemical"}, "eeAChE": {"target": "eeAChE (Electrophorus electricus, UniProt O42275)", "sequence (O42275 24-633)": "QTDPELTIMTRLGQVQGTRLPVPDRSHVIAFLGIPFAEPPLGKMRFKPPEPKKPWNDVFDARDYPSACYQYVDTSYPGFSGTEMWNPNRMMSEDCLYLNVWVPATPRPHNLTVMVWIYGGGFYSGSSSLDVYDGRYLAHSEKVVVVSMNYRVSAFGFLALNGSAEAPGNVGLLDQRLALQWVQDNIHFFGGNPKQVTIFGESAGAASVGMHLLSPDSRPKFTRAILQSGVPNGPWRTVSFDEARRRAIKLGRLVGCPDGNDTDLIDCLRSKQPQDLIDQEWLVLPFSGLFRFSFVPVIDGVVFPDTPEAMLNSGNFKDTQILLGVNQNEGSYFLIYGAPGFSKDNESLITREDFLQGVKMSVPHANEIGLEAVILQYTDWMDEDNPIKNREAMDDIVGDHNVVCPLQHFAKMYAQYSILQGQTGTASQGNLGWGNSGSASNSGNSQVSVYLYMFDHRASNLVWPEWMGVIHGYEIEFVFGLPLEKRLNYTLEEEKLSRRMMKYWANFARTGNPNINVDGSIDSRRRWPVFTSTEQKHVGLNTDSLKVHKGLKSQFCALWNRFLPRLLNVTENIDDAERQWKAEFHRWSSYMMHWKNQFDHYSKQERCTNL", "assay": "Cholinesterase inhibition, Ellman's assay", "type": "biochemical, electric eel"}, "eqBChE": {"target": "eqBChE (Equus caballus, UniProt P81908)", "sequence (P81908 whole entry)": "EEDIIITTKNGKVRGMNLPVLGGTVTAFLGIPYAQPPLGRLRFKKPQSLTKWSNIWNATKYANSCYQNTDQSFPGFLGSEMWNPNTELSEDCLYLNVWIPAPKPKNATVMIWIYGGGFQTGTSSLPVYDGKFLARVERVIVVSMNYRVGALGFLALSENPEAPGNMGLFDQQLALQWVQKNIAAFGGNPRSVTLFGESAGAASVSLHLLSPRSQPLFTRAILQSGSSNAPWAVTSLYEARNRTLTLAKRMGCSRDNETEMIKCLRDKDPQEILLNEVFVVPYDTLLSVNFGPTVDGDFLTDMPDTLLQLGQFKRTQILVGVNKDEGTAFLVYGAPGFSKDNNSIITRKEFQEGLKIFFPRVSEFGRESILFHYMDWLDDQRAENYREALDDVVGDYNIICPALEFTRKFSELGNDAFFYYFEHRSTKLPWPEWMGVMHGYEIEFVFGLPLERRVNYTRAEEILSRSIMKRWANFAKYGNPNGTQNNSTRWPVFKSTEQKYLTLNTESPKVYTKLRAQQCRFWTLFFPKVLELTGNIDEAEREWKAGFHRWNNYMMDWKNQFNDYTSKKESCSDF", "assay": "Cholinesterase inhibition, Ellman's assay", "details": "read-out: IC50 (μM) ± SEM eqBChE; mean ± SEM; n = 3"}}}
{"compound": "COc1cc(/C=C/C(=O)Nc2nc3ccc(O)cc3s2)ccc1OCc1ccccc1", "note": "[Compound 22, (E)-3-(4-(Benzyloxy)-3-methoxyphenyl)-N-(6-hydroxybenzo[d]thi-azol-2-yl)acrylamide]", "values": [{"measurement": "IC50", "setting": "[1]", "result": "16.33 ± 0.1", "unit": "µM"}, {"measurement": "IC50", "setting": "[2]", "result": "43.2 ± 1.34", "unit": "µM"}, {"measurement": "IC50", "setting": "human MAO-A", "result": "19.4 ± 1.1", "unit": "µM"}, {"measurement": "IC50", "setting": "human MAO-B; read-out: IC50 (μM) ± SEM MAO-B, mean ± SEM, n = 3", "result": "0.348 ± 0.041", "unit": "µM"}, {"measurement": "SI = IC50 of MAO-A/IC50 of MAO-B", "setting": "human MAO-B; selectivity index", "result": 55}, {"measurement": "IC50", "setting": "eeAChE; read-out: IC50 (μM) ± SEM eeAChE, mean ± SEM, n = 3", "result": "0.172 ± 0.1", "unit": "µM"}, {"measurement": "SI = IC50 of BChE/IC50 of AChE", "setting": "eeAChE; selectivity index", "result": 217}, {"measurement": "IC50", "setting": "eqBChE", "result": "37.4 ± 1.17", "unit": "µM"}]}
